Data: US11905260B1, “N′-(1-naphthoyloxy)-2-(benzo[d]oxazol-2-yl)acetimidamide as an antimicrobial compound” (KING FAISAL UNIVERSITY, priority 2023, dated 2024)

How the values were obtained:
Bacillus cereus = assay: agar plate disc-diffusion, antibacterial activity by inhibition zone; assay type: cell-based; settings: nutrient agar, 37° C., 48 hours
Method: (§1) The agar plate disc-diffusion method was applied. […] The discs were then placed onto the surface of agar plates (nutrient agar for bacteria and Sabouraud's dextrose agar for fungi) seeded with the test organism. Each plate contained 15 mL of the agar medium, previously seeded with 0.2 mL of the broth culture of each organism pregrown for 18 hours. The plates were incubated at 37° C. for 48 hours, and 72 hours for fungi. The inhibition zones was measured in mm. Discs impregnated with DMSO were used as a control, and its inhibition zone was subtracted from the tested compound actual inhibition zone.

Escherichia coli = assay: as above; assay type: cell-based; settings: nutrient agar, 37° C., 48 hours
Method: as §1

Pseudomonas aeruginosa = assay: as above; assay type: cell-based; settings: nutrient agar, 37° C., 48 hours
Method: as §1

Staphylococcus aureus = assay: as above; assay type: cell-based; settings: nutrient agar, 37° C., 48 hours
Method: as §1

Aspergillus flavus = assay: agar plate disc-diffusion, antifungal activity by inhibition zone; assay type: cell-based; settings: Sabouraud's dextrose agar, 72 hours
Method: as §1

[1] = system: Chrysosporium keratinophilum; assay: as above; assay type: cell-based; settings: Sabouraud's dextrose agar, 72 hours
Method: as §1

different microbes = assay: antimicrobial activity, overall statement; assay type: cell-based; settings: summary in words
Method: The agar plate disc-diffusion method was applied. Sterilized filter papers (6 mm in diameter) were wetted with 10 μL of a solution N′-(1-naphthoyloxy)-2-(benzo[d]oxazol-2-yl)acetimidamide (3) to be tested, containing 10 mg/mL in DMSO, and the discs were allowed to air dry. The discs were then placed onto the surface of agar plates (nutrient agar for bacteria and Sabouraud's dextrose agar for fungi) seeded with the test organism. Each plate contained 15 mL of the agar medium, previously seeded with 0.2 mL of the broth culture of each organism pregrown for 18 hours. The plates were incubated at 37° C. for 48 hours, and 72 hours for fungi. The inhibition zones was measured in mm. Discs impregnated with DMSO were used as a control, and its inhibition zone was subtracted from the tested compound actual inhibition zone.

[2] = A = concentration of comp. = 10,000 μL
[3] = B = concentration of comp. = 30,000 μL
[4] = C = concentration of comp. = 50,000 μL

SMILES: N/C(Cc1nc2ccccc2o1)=N\OC(=O)c1cccc2ccccc12 [compound 3, N′-(1-naphthoyloxy)-2-(benzo[d]oxazol-2-yl)acetimidamide]
- inhibition zone, Bacillus Cereus (Bacillus cereus; [2]): 23 mm
- inhibition zone, Bacillus Cereus (Bacillus cereus; [3]): 27 mm
- inhibition zone, Bacillus Cereus (Bacillus cereus; [4]): 36 mm
- inhibition zone, Escherichia coli (Escherichia coli; [2]): 27 mm
- inhibition zone, Escherichia coli (Escherichia coli; [3]): 34 mm
- inhibition zone, Escherichia coli (Escherichia coli; [4]): 51 mm
- inhibition zone, Pseudomonas aeruginosa (Pseudomonas aeruginosa; [2]): 22 mm
- inhibition zone, Pseudomonas aeruginosa (Pseudomonas aeruginosa; [3]): 24 mm
- inhibition zone, Pseudomonas aeruginosa (Pseudomonas aeruginosa; [4]): 38 mm
- inhibition zone, Staphylococcus aureus (Staphylococcus aureus; [2]): 26 mm
- inhibition zone, Staphylococcus aureus (Staphylococcus aureus; [3]): 30 mm
- inhibition zone, Staphylococcus aureus (Staphylococcus aureus; [4]): 38 mm
- inhibition zone, Aspergillus flavus (Aspergillus flavus; [2]): 24 mm
- inhibition zone, Aspergillus flavus (Aspergillus flavus; [3]): 26 mm
- inhibition zone, Aspergillus flavus (Aspergillus flavus; C =): 37 mm
- inhibition zone, Chrysosporium keratinophilum [1, 2]: 27 mm
- inhibition zone, Chrysosporium keratinophilum [1, 3]: 30 mm
- inhibition zone, Chrysosporium keratinophilum [1, 4]: 51 mm
- antimicrobial activities against different microbes (different microbes): excellent antimicrobial activities
- melting point: 131 to 132 °C
